Measurements: US20240147987A1, “METHOD FOR IMPROVING THE EFFECT OF THE OOCYTE CRYOPRESERVATION BY REDUCING THE MITOCHONDRIAL TEMPERATURE” (China Agricultural University, priority 2022, published 2024)
“And” between values parts separate entries of the source, which are not always exact repeats. Equal entries are not always repeated.

What was measured:
porcine oocytes [1] = experiment: Oocyte mitochondrial temperature detection (Mito Thermo Yellow probe fluorescence); format: cell-based
Procedure: (§1) 100 nM Mito Thermo Yellow dye was added in TL-HEPES-0.3% BSA solution and preheated for 15 min at 37° C. in an incubator containing 5% CO2, the oocytes were moved into the preheated dye solution in the incubator for 15 min and then washed three times with TL-HEPES-0.3% BSA for 10 min each time, the fluorescence intensity was detected by laser confocal microscopy, and the changes of mitochondrial temperature were analyzed.
Metformin can effectively reduce mitochondrial heat production.

porcine oocytes [2] = experiment: Parthenogenetic activation of oocytes (cleavage and blastocyst development)
Procedure: After the first polar body was extruded, mature oocytes with uniform cytoplasm were selected for parthenogenetic activation. The oocytes were washed three times with a pre-heated electro-activation solution, and then the oocytes were placed between electrodes filled with the activation solution, the electro-activation solution was 0.3 M mannitol, 0.05 mM CaCl2, 0.1 mM MgCl2, and 0.4% (m/v) bovine serum albumin dissolved in water. An electric fusion meter (Fujihira Industry Co. Ltd, Tokyo, Japan) was used for electrical activation, the electric field intensity was 65 V/mm, the DC pulse duration was 80 μs, and the number of pulses was 1. The activated oocytes were cultured in PZM-3 containing 5 μg/mL cytochalasin B and 10 μg/mL cycloheximide at 38.5° C., 5% CO2 for 4 h. Then the oocytes were washed and cultured in PZM-3 (day 0). The number of cleavage embryos was counted on day 2 and blastocyst formation was recorded on day 7.

[3] = system: vitrified porcine oocytes; experiment: Survival rate detection of vitrified oocytes after thawing (FDA staining); format: cell-based; conditions: freezing group 71.85%
Procedure: The room temperature was adjusted to 25±1° C. so that the test apparatus and reagents were fully balanced, the experiment was carried out on a 37° C. thermostat, the oocytes were transferred into 20% EG solution for 3 min, and then transferred into the vitrification solution EDFS40 for 30-40 s, the oocytes were then placed on the cryocarrier Cryotop. […] When thawing the oocytes, the Cryotop was taken out from liquid nitrogen, and the oocytes were immediately immersed in PBS containing 1M sucrose (containing 20% FBS) on a thermostatic table (37° C.) for 1 min, and then transferred to PBS containing 0.5M and 0.25M sucrose (containing 20% FBS) for 3 min, and then placed in PBS containing 20% FBS for recovery for 5 min, and then washed three times with mature medium and placed in mature medium for recovery for 2 hours. • (1) Survival Rate Detection of Oocytes after Thawing
The survival rate of oocytes was detected by FDA (fluorescein diacetate) staining. The collected oocytes were incubated in TL-HEPES-0.3% BSA solution containing 2.5 μg/mL FDA for 1 min and then washed three times with TL-HEPES-0.3% BSA solution, the oocytes were placed on a petri dish and observed using a fluorescence microscope, the oocytes with green fluorescence were considered to be alive.

porcine oocytes [4] = experiment: Oocyte membrane fluidity detection by FRAP; format: cell-based; conditions: metformin pretreatment; P<0.05
Procedure: The membrane fluidity of oocytes was detected by fluorescence recovery after photobleaching (FRAP). The oocytes were first placed in TL-HEPES-0.3% BSA solution containing cell membrane fluorescent probe Dil, and incubated at 37° C. in the incubator containing 5% CO2 for 10 min. After incubation, the oocytes were washed three times within TL-HEPES-0.3% BSA solution, and then the oocytes were placed in a confocal dish. FRAP experiments were performed on a confocal microscope. Firstly, a bleaching area was selected, and three fluorescence images were collected before bleaching, with an interval of 5 s for each image. The bleaching fluorescence intensity was 100%, and the bleaching time was 7.93 s. Recovery time was 3 min after bleaching, and fluorescence images were collected at 5 s intervals. The fluorescence intensity of the bleaching area was statistically analyzed and the data were normalized.

vitrified oocytes [5] = experiment: Mitochondrial temperature of vitrified oocytes after thawing (MTY probe); format: cell-based, porcine; conditions: metformin pretreatment before freezing; P<0.01
Procedure: as §1
The room temperature was adjusted to 25±1° C. so that the test apparatus and reagents were fully balanced, the experiment was carried out on a 37° C. thermostat, the oocytes were transferred into 20% EG solution for 3 min, and then transferred into the vitrification solution EDFS40 for 30-40 s, the oocytes were then placed on the cryocarrier Cryotop. […]
The effect of metformin pretreatment on the mitochondrial temperature of vitrified oocytes was further analyzed.

vitrified oocytes [6] = experiment: Ultrastructural observation of lipid droplets in oocytes (TEM); format: cell-based, porcine; conditions: metformin pretreatment
Procedure: The oocytes were washed with DPBS and fixed overnight at 4° C. in a 0.1M dimethylarsenate buffer containing 2.5% (m/v) glutaraldehyde. After washing with DPBS, oocytes were fixed with 1% osmic acid, then washed with DPBS, and dehydrated in a gradient of 30%, 50%, 70%, 80%, 90%, and 100% acetone. The epoxy resin SPURR was used for embedding-polymerization, and the LKB-V slicing machine (ultra-thin slice thickness 50 nm (diamond knife)) was used for slicing, and then the double staining of uranium acetate-lead citrate was carried out on the copper mesh of the electron microscope, the copper mesh containing the sample was dried in a glass dish overnight, and the image was collected using a transmission electron microscope (TEM) at 80 kv (HITACHI, New Bio-TEM H-7500, Japan).

[7] = 1 μM UK5099 vs control group, after parthenogenetic activation
[8] = 2 μM UK5099 vs control group, after parthenogenetic activation
[9] = UK5099 0.5 μM, 1 μM, 2 μM, 4 μM
[10] = rotenone-treated group vs control group, after parthenogenetic activation, P<0.01

N#C/C(=C\c1cn(-c2ccccc2)c2ccccc12)C(=O)O [UK5099]
mitochondrial temperature (porcine oocytes [1]; 1 μM UK5099 treatment for 1 h, P<0.05): significantly reduced
mitochondrial temperature (porcine oocytes [1]; 2 μM UK5099 treatment for 1 h, P<0.01): significantly reduced
blastocyst rate (porcine oocytes [2]; [7]): not significantly different
cleavage rate (porcine oocytes [2]; [7]): not significantly different
blastocyst rate (porcine oocytes [2]; [8]): not significantly different
cleavage rate (porcine oocytes [2]; [8]): not significantly different
blastocyst rate, trend with concentration (porcine oocytes [2]; [9]): decreased with the increase of UK5099 concentration
cleavage rate, trend with concentration (porcine oocytes [2]; [9]): decreased with the increase of UK5099 concentration
Survival rate (%) ([3]; UK5099 pretreatment before vitrification, P>0.05): 67.50% and 67.50^b(135/200) %

CN(C)C(=N)N=C(N)N [metformin]
mitochondrial temperature (porcine oocytes [1]; 400 μM metformin treatment for 1 h, P<0.05): significantly reduce mitochondrial temperature
cleavage rate (porcine oocytes [2]; metformin pretreatment group vs control group, after parthenogenetic activation, day 2): no significant difference
blastocyst development rate (porcine oocytes [2]; metformin pretreatment group vs control group, after parthenogenetic activation, day 7): no significant difference
plasma membrane fluidity (porcine oocytes [4]): significantly decreased
Survival rate (%) ([3]; pretreated with 400 μM metformin for 1 h before vitrification, P<0.05): 81.36%
Survival rate (%) ([3]; pretreated with 400 μM metformin for 1 h before vitrification, P<0.05, listed as Metformin): 81.36^c(179/330) %
mitochondrial temperature of vitrified oocytes after thawing (vitrified oocytes [5]): significantly higher than that of the conventional freezing group
size of lipid droplets in oocytes (vitrified oocytes [6]): close to that of the fresh group

CC[C@H]1/C=C/C=C/C[C@@H](C)[C@H](O)[C@@](C)(O)C(=O)[C@@H](C)[C@H](O)[C@@H](C)C(=O)[C@@H](C)[C@H](O)[C@@H](C)/C=C/C(=O)O[C@@H]2[C@H](C)[C@H](CC1)O[C@]1(CC[C@H](C)[C@H](C[C@@H](C)O)O1)[C@H]2C [oligomycin]
mitochondrial temperature (porcine oocytes [1]; 0.5 μM oligomycin treatment for 1 h, P<0.01): significantly reduce
mitochondrial temperature (porcine oocytes [1]; 1.5 μM oligomycin treatment for 1 h, P<0.01): significantly reduce
mitochondrial temperature (porcine oocytes [1]; 2.5 μM oligomycin treatment for 1 h, P<0.01): significantly reduce
blastocyst development rate (porcine oocytes [2]; 0.5 μM oligomycin vs control group): significantly lower
blastocyst development (porcine oocytes [2]; 1.5 μM oligomycin vs control group, P<0.01): significantly lower
blastocyst development (porcine oocytes [2]; 2.5 μM oligomycin vs control group, P<0.01): significantly lower
cleavage rate (porcine oocytes [2]; different concentrations of oligomycin vs control group, parthenogenetic activation, P<0.01): significantly lower
Survival rate (%) ([3]; oligomycin pretreatment before vitrification, P<0.05): 29.79%
Survival rate (%) ([3]; oligomycin pretreatment before vitrification, P<0.05, listed as Oligomycin): 29.79^c(56/188) %

C=C(C)[C@H]1Cc2c(ccc3c2O[C@@H]2COc4cc(OC)c(OC)cc4[C@@H]2C3=O)O1 [rotenone]
mitochondrial temperature (porcine oocytes [1]; 1 μM rotenone treatment for 1 h, P<0.01): significantly reduced
blastocyst development rate (porcine oocytes [2]; [10]): significantly decreased
cleavage rate (porcine oocytes [2]; [10]): significantly decreased
cytotoxicity (porcine oocytes [2]; summary statement on rotenone): greater cytotoxicity
